Reference: ChEMBL document CHEMBL1201862, “PubChem BioAssay data set” (2004)
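How tested: cells in 96-well plates exposed to compound for 48 hours at five concentrations. GI50 = concentration required for 50% inhibition of growth.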 Calls of active or inactive are those of the source. Rule as the data show it: active = GI50 up to about 1.1 µM and inactive = higher.

Assays:
Experiment in all cases: growth of human tumour cells (NCI), 48 h
[1] = system: SW-620
[2] = system: MDA-N
[3] = system: SF-539
[4] = system: ACHN
[5] = system: EKVX
[6] = system: A498
[7] = system: OVCAR-8
[8] = system: SF-268
[9] = system: SN12C
[10] = system: BT-549
[11] = system: SK-OV-3
[12] = system: HT-29
[13] = system: UACC-257
[14] = system: SNB-75
[15] = system: SK-MEL-2
[16] = system: OVCAR-3
[17] = system: NCI-H460

Row | SMILES | GI50 [1] | GI50 [2] | GI50 [3] | GI50 [4] | GI50 [5] | GI50 [6] | GI50 [7] | GI50 [8] | GI50 [9] | GI50 [10] | GI50 [11] | GI50 [12] | GI50 [13] | GI50 [14] | GI50 [15] | GI50 [16] | GI50 [17]
1 | N#Cc1c(C#N)c(-c2ccccc2)n(-c2ccccc2)c1N | > 100 µM (inactive) | > 100 µM (inactive) | 20.2 µM (inactive) | 50.7 µM (inactive) | 73.8 µM (inactive) | > 100 µM (inactive) | > 100 µM (inactive) | 88.3 µM (inactive) | > 100 µM (inactive) | 48.4 µM (inactive) | 83.6 µM (inactive) | > 100 µM (inactive) | > 100 µM (inactive) | 1.27 µM (inactive) | 99.1 µM (inactive) | > 100 µM (inactive) | 
2 | O=C1C2CCCCC2C(=O)N1n1c(Cc2ccc(Cl)cc2)n[nH]c1=O (stereo not drawn) | > 100 µM (inactive) | > 100 µM (inactive) | > 100 µM (inactive) | > 100 µM (inactive) | > 100 µM (inactive) | > 100 µM (inactive) | > 100 µM (inactive) | > 100 µM (inactive) | > 100 µM (inactive) | > 100 µM (inactive) | > 100 µM (inactive) | > 100 µM (inactive) | > 100 µM (inactive) | > 100 µM (inactive) | > 100 µM (inactive) | > 100 µM (inactive) | > 100 µM (inactive)
3 | c1ccc2cc(CN3CCC(C4CCN(Cc5ccc6ccccc6c5)CC4)CC3)ccc2c1 | 2.74 µM (inactive) | 1.96 µM (inactive) | 1.8 µM (inactive) | 4.99 µM (inactive) | 8.24 µM (inactive) | 10.8 µM (inactive) | 3.92 µM (inactive) | 8.53 µM (inactive) | 21.8 µM (inactive) | 10.3 µM (inactive) | 10.1 µM (inactive) | 1.52 µM (inactive) | 1.98 µM (inactive) | 2.67 µM (inactive) | 2.18 µM (inactive) | 4.59 µM (inactive) | 3.11 µM (inactive)
4 | COc1cccc(OC)c1NC(=O)C(=O)Nn1c(NNC(=O)c2ccncc2)nc2ccccc2c1=O | > 100 µM (inactive) | > 100 µM (inactive) | > 100 µM (inactive) | > 100 µM (inactive) | 84.9 µM (inactive) | > 100 µM (inactive) | > 100 µM (inactive) | > 100 µM (inactive) | > 100 µM (inactive) | > 100 µM (inactive) | > 100 µM (inactive) | > 100 µM (inactive) | > 100 µM (inactive) | > 100 µM (inactive) | > 100 µM (inactive) | > 100 µM (inactive) | > 100 µM (inactive)
5 | CCC1CC(C)C(O)/C=C/C=C/CC(C)OC(=O)CC(O)C(OC)C1OC1OC(C)CC(O)(C(C)=O)C1O (stereo not drawn) | > 100 µM (inactive) | 36.4 µM (inactive) | 78.9 µM (inactive) | 49.5 µM (inactive) | 57.7 µM (inactive) | 77.4 µM (inactive) | > 100 µM (inactive) | 83.6 µM (inactive) | 42.1 µM (inactive) | 40.6 µM (inactive) | > 100 µM (inactive) | 59.4 µM (inactive) | 37.9 µM (inactive) | 15.5 µM (inactive) | 39.1 µM (inactive) | 20.3 µM (inactive) | 
6 | COc1ccc(/C=C2\N=C(c3ccccc3)N(NC3=NC(=O)CC(=O)N3)C2=O)cc1 | > 100 µM (inactive) | > 100 µM (inactive) | > 100 µM (inactive) | > 100 µM (inactive) |  | > 100 µM (inactive) | > 100 µM (inactive) | > 100 µM (inactive) | > 100 µM (inactive) | > 100 µM (inactive) | > 100 µM (inactive) | > 100 µM (inactive) | > 100 µM (inactive) | > 100 µM (inactive) | > 100 µM (inactive) | > 100 µM (inactive) | > 100 µM (inactive)
7 | Nc1ccc2ccc(-c3ccc[nH]3)nc2n1 | > 100 µM (inactive) | > 100 µM (inactive) | > 100 µM (inactive) | > 100 µM (inactive) | > 100 µM (inactive) | > 100 µM (inactive) | > 100 µM (inactive) | > 100 µM (inactive) | > 100 µM (inactive) | > 100 µM (inactive) | > 100 µM (inactive) |  | > 100 µM (inactive) | > 100 µM (inactive) | > 100 µM (inactive) | > 100 µM (inactive) | > 100 µM (inactive)
8 | O=C1C=CC2(C=C1)O[C@H](COCc1ccccc1)[C@@H](COCc1ccccc1)O2 | 0.271 µM (active) | 1.52 µM (inactive) | 1.97 µM (inactive) | 1.58 µM (inactive) | 1.59 µM (inactive) | 19.9 µM (inactive) | 0.305 µM (active) | 1.64 µM (inactive) | 1.65 µM (inactive) | 0.792 µM (active) | 15.7 µM (inactive) | 2.34 µM (inactive) | 1.62 µM (inactive) | 4.54 µM (inactive) | 1.71 µM (inactive) | 2.37 µM (inactive) | 18.8 µM (inactive)
9 | COc1cccc(Nc2nc(N)nc(N)c2N=O)c1 | 31.3 µM (inactive) | 30.8 µM (inactive) | 15.3 µM (inactive) | 17.3 µM (inactive) | 19.4 µM (inactive) | 21.7 µM (inactive) | 16.1 µM (inactive) | 14.7 µM (inactive) | 17.8 µM (inactive) | 28 µM (inactive) | 29.2 µM (inactive) | 21.8 µM (inactive) | 21.3 µM (inactive) | 10.8 µM (inactive) | 31 µM (inactive) | 15.6 µM (inactive) | 13.6 µM (inactive)
10 | CC1=Nc2ccccc2/C1=C\c1c(C)[nH]c2ccccc12 | 11 µM (inactive) | 6.75 µM (inactive) | 24.5 µM (inactive) | 15.7 µM (inactive) | 12.2 µM (inactive) | 17.5 µM (inactive) | 12.4 µM (inactive) | 11.2 µM (inactive) | 21.4 µM (inactive) | 3.55 µM (inactive) | 15.6 µM (inactive) | 12.8 µM (inactive) | 13.2 µM (inactive) | 18.7 µM (inactive) | 17.8 µM (inactive) | 12.6 µM (inactive) | 17.8 µM (inactive)
11 | COc1ccc(Cl)cc1NC(=O)O/N=C(\Cl)C(C)C | 2.7 µM (inactive) | 11.4 µM (inactive) | 13.1 µM (inactive) | 2.12 µM (inactive) | 3.74 µM (inactive) | 21.5 µM (inactive) | 15 µM (inactive) | 21.5 µM (inactive) | 8.49 µM (inactive) | 2.56 µM (inactive) | 18.7 µM (inactive) | 16.4 µM (inactive) | 17.1 µM (inactive) | 16.4 µM (inactive) | 18.7 µM (inactive) | 6 µM (inactive) | 17.1 µM (inactive)
12 | CCCCCCCCCCCCCCCCNc1nc(=O)n(C2OC(C)C(O)C2O)cc1F (stereo not drawn) | 19.9 µM (inactive) | 19.1 µM (inactive) | 18.2 µM (inactive) | 15.5 µM (inactive) | 18.4 µM (inactive) | 19.5 µM (inactive) | 21.8 µM (inactive) | 20 µM (inactive) | 21.9 µM (inactive) | 19.7 µM (inactive) | 22.9 µM (inactive) | 17.2 µM (inactive) | 20.5 µM (inactive) | 18.5 µM (inactive) | 18.9 µM (inactive) | 17.5 µM (inactive) | 17 µM (inactive)
13 | O/N=C(/CC(O)(C(F)(F)F)C(F)(F)F)c1ccccc1 | > 10 µM (inactive) | > 10 µM (inactive) | > 10 µM (inactive) | > 10 µM (inactive) | > 10 µM (inactive) | > 10 µM (inactive) | > 10 µM (inactive) | > 10 µM (inactive) | > 10 µM (inactive) | > 10 µM (inactive) | > 10 µM (inactive) | > 10 µM (inactive) | > 10 µM (inactive) | > 10 µM (inactive) | > 10 µM (inactive) | > 10 µM (inactive) | > 10 µM (inactive)
14 | COc1ccc2nc3c([N+](=O)[O-])ccc4c3c(c2c1)N=CN4CCN(C)C | 3.3 µM (inactive) | 4.71 µM (inactive) | 3.28 µM (inactive) | 3.66 µM (inactive) | 4.65 µM (inactive) | 4.16 µM (inactive) | 2.82 µM (inactive) | 4.09 µM (inactive) | 2.88 µM (inactive) | 12 µM (inactive) | 9.27 µM (inactive) | 2.52 µM (inactive) | 3.96 µM (inactive) | 2.9 µM (inactive) | 9.23 µM (inactive) | 4.55 µM (inactive) | 2.96 µM (inactive)
15 | COc1cc2c(cc1OCCCCCN1C(=O)c3cccc4cccc(c34)C1=O)N=C[C@@H]1CCCN1C2=O | 0.278 µM (active) | 0.207 µM (active) | 0.0646 µM (active) | 0.167 µM (active) | 0.492 µM (active) | 0.31 µM (active) | 0.281 µM (active) | 0.207 µM (active) | 0.336 µM (active) | 0.244 µM (active) | 0.514 µM (active) | 0.286 µM (active) | 0.323 µM (active) | 0.34 µM (active) | 0.223 µM (active) | 0.184 µM (active) | 0.316 µM (active)
16 | OCCNc1ncnc2c1ncn2C1OC(CO)C(O)C1O (stereo not drawn) | > 100 µM (inactive) | > 100 µM (inactive) | > 100 µM (inactive) | 71.3 µM (inactive) | > 100 µM (inactive) | 57.7 µM (inactive) | 35 µM (inactive) | 91.6 µM (inactive) | 80.5 µM (inactive) | > 100 µM (inactive) | > 100 µM (inactive) | > 100 µM (inactive) | > 100 µM (inactive) | > 100 µM (inactive) | > 100 µM (inactive) | 52.1 µM (inactive) | 87.9 µM (inactive)
